Legend:
human SGLT2 = target: T1, human SGLT2 (Homo sapiens, UniProt P31639); assay: Cell-based assay for sodium-dependent glucose transport (14C-AMG uptake), CHOK-SGLT2; settings: CHO-K1 cells stably expressing human SGLT2; for IC50: Na-dependent 14C-AMG uptake; for inhibition at 10 µM: 10 μM compound, read-out: CHOK-SGLT2 % Inh. @ 10 μM
T1 construct: expressed in transfected cells
T1 sequence (P31639 1-672): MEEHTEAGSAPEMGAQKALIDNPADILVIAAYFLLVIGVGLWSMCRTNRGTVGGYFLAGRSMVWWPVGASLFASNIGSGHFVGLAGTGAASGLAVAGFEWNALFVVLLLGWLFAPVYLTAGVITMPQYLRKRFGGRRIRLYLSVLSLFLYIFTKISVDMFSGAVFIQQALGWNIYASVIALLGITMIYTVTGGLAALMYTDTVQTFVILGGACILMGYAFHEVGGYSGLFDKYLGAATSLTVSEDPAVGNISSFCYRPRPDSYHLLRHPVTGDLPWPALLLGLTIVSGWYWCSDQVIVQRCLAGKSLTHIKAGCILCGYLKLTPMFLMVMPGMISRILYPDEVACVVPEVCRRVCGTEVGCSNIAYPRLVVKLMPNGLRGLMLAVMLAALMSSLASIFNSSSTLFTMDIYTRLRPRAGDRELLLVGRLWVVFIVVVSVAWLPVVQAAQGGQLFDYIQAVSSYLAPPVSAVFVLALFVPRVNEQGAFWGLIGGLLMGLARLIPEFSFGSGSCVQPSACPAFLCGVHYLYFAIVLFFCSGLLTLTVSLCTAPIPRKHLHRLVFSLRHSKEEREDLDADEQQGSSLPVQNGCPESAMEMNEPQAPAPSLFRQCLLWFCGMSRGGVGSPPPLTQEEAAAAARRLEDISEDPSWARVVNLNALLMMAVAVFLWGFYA
Procedure: (§1) Cloning of the human SGLT1 and human SGLT2 cDNAs and construction of the mammalian expression vector: The human SGLT1 cDNA (Genbank M24847) was cloned from human small intestine. Human SGLT2 cDNA (Genbank M95549) was cloned from human kidney. Both full cDNAs were subcloned into pcDNA and sequenced to verify the integrity of the construct.
(§2) Generation of CHO-K1 cells stably expressing human SGLT1 or human SGLT2: Transfection of CHO-K1 cells was performed using DMRIE-C reagent (Life Technologies, Gaithersburg, Md.). Transfectants were then selected in the presence of the antibiotic G418 (Gibco-BRL, Grand Island, N.Y.) at 400 μg/ml. Individual clones were then characterized using the functional assay described below.
(§3) Cell-based assay for sodium-dependent glucose transport: Cell lines stably expressing human SGLT1 or SGLT2 were then used for functional analysis of Na+-dependent glucose uptake. Briefly, cells were plated at a density of 65,000 cells per well in a 96-well plate and allowed to grow for 48 hours. Cells were subsequently washed one time with Assay Buffer (50 mM HEPES pH […], 5 mM KCl, 1 mM MgCl2, 1 mM CaCl2 and 137 mM NaCl) and treated with compound in the absence or presence of NaCl for 15 minutes. Cells were then labeled with ^14C-α-methylglucopyranoside (AMG, Sigma, St. Louis, Mo.), a non-metabolizable glucose analog specific for sodium-dependent glucose transporters as previously described (Peng, H. and Lever J. E. Post-transcriptional regulation of Na^+/glucose cotransporter (SGLT1) gene expression in LLC-PK1 cells. J Biol Chem 1995; 270:20536-20542.). After 2 hours the labeled cells were washed three times with ice-cold PBS. After aspiration, cells were solubilized using Microscint 20 (Packard, Meriden, Conn.) and Na-dependent ^14C-AMG uptake was quantified by measuring radioactivity. Plates were counted in a TopCount (Packard, Meriden, Conn.). Results are reported as the % inhibition or IC50 value from a representative experiment. Variability for the functional assay was typically within 20%.

human SGLT1 = target: T2, human SGLT1 (Homo sapiens, UniProt P13866); assay: Cell-based assay for sodium-dependent glucose transport (14C-AMG uptake), CHOK-SGLT1; settings: CHO-K1 cells stably expressing human SGLT1; for IC50: Na-dependent 14C-AMG uptake; for inhibition at 10 µM: 10 μM compound, read-out: CHOK-SGLT1 % Inh. @ 10 μM
T2 construct: expressed in transfected cells
T2 sequence (P13866 1-664): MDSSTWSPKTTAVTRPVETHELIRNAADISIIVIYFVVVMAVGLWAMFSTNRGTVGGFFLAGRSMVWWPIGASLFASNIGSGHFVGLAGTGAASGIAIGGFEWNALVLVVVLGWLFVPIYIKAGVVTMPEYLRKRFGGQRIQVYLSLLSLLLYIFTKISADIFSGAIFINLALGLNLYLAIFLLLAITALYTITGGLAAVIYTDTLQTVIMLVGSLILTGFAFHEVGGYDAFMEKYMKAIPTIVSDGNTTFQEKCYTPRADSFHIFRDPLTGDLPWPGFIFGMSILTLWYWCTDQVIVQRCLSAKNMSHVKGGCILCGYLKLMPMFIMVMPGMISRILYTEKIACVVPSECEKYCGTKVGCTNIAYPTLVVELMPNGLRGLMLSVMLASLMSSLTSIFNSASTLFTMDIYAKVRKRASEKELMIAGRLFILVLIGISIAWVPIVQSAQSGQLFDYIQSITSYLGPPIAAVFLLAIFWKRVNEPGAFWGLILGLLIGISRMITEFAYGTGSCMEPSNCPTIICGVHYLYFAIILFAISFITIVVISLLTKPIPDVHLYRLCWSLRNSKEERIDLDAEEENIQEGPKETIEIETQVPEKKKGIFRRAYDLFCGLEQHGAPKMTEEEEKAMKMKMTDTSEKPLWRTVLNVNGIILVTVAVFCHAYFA
Procedure: as §1, §2, §3

Row | SMILES | IC50 (human SGLT2) [nM] | IC50 (human SGLT1) [nM] | inhibition at 10 µM (human SGLT1) [%] | inhibition at 10 µM (human SGLT2) [%]
1 | Cn1cc(CCc2ccc3c(c2)CCO3)c2c(O[C@@H]3O[C@H](CO)[C@@H](O)[C@H](O)[C@H]3O)cccc21 [Example 3, 2-{3-[2-(2,3-Dihydro-benzofuran-5-yl)-ethyl]-1-methyl-1H-indol-4-yloxy} β-D-glucopyranoside] | 62 | 195 | – | –
2 | Cc1ccc(Cc2c[nH]c3cccc(O[C@@H]4O[C@H](CO)[C@@H](O)[C@H](O)[C@H]4O)c23)cc1 [Example 15, 2-[3-(4-Methyl-benzyl)-1H-indol-4-yloxy]-β-D-glucopyranoside] | 53 | 3880 | – | –
3 | CCN(CC)C(=O)n1cc(Cc2ccc(OC)cc2)c2c(O[C@@H]3O[C@H](CO)[C@@H](O)[C@H](O)[C@H]3O)cccc21 [Example 21, 2-[1-Diethylcarbamoyl-3-(4-methoxy-benzyl)-1H-indol-4-yloxy]-β-D-glucopyranoside] | 1430 | – | 43 | –
4 | CC(=O)OC[C@H]1O[C@@H](Oc2cccc3[nH]cc(CCc4ccc5c(c4)CCO5)c23)[C@H](O)[C@@H](O)[C@@H]1O [Example 2, 2-{3-[2-(2,3-Dihydro-benzofuran-5-yl)-ethyl]-1H-indol-4-yloxy}-6-O-acetyl β-D-glucopyranoside] | 158 | 1360 | – | –
5 | CCc1ccc(C(=O)c2c[nH]c3cccc(O[C@@H]4O[C@H](CO)[C@@H](O)[C@H](O)[C@H]4O)c23)cc1 [Example 38, 2-[3-(4-Ethylbenzoyl)-1H-indol-4-yloxy]-β-D-glucopyranoside] | – | – | 7 | 22
6 | OC[C@H]1O[C@@H](Oc2cccc3[nH]cc(CCc4ccc5c(c4)OCCO5)c23)[C@H](O)[C@@H](O)[C@@H]1O [Example 5, 2-{3-[2-(2,3-Dihydro-benzo[1,4]dioxin-6-yl)-ethyl]-1H-indol-4-yloxy}-β-D-glucopyranoside] | 146 | 3380 | – | –
7 | CCc1ccc(Cc2c[nH]c3cc(C)cc(O[C@@H]4O[C@H](CO)[C@@H](O)[C@H](O)[C@H]4O)c23)cc1 [Example 32, 2-[3-(4-Ethyl-benzyl)-6-methyl-1H-indol-4-yloxy]-β-D-glucopyranoside] | 117 | – | 30 | –
8 | CCOc1ccc(CCc2c[nH]c3cccc(O[C@@H]4O[C@H](CO)[C@@H](O)[C@H](O)[C@H]4O)c23)cc1 [Example 8, 2-{3-[2-(4-Ethoxy-phenyl)-ethyl]-1H-indol-4-yloxy}-β-D-glucopyranoside] | 183 | 1340 | – | –
9 | CC(C)c1ccc(Cc2c[nH]c3cccc(O[C@@H]4O[C@H](CO)[C@@H](O)[C@H](O)[C@H]4O)c23)cc1 [Example 18, 2-[3-(4-isopropyl-benzyl)-1H-indol-4-yloxy]-β-D-glucopyranoside] | 88 | – | 49 | –
10 | CSc1ccc(Cc2c[nH]c3cccc(O[C@@H]4O[C@H](CO)[C@@H](O)[C@H](O)[C@H]4O)c23)cc1 [Example 27, 2-[3-(4-Methylsulfanyl-benzyl)-1H-indol-4-yloxy]-β-D-glucopyranoside] | 26 | 1310 | – | –
11 | OC[C@H]1O[C@@H](Oc2cccc3[nH]cc(Cc4ccc5ccccc5c4)c23)[C@H](O)[C@@H](O)[C@@H]1O [Example 29, 2-(3-Naphthalen-2-ylmethyl-1H-indol-4-yloxy)-β-D-glucopyranoside] | 260 | – | 68 | –
12 | OC[C@H]1O[C@@H](Oc2cccc3[nH]cc(CCc4ccc5c(c4)CCO5)c23)[C@H](O)[C@@H](O)[C@@H]1O [Example 1, 2-{3-[2-(2,3-Dihydro-benzofuran-5-yl)-ethyl]-1H-indol-4-yloxy} β-D-glucopyranoside] | 20 | 148 | – | –
13 | COc1ccc(CCc2c[nH]c3cccc(O[C@@H]4O[C@H](CO)[C@@H](O)[C@H](O)[C@H]4O)c23)cc1 [Example 7, 2-{3-[2-(4-Methoxy-phenyl)-ethyl]-1H-indol-4-yloxy}-β-D-glucopyranoside] | 142 | 560 | – | –
14 | CCc1ccc(Cc2c(C)[nH]c3cccc(O[C@@H]4O[C@H](CO)[C@@H](O)[C@H](O)[C@H]4O)c23)cc1 [Example 36, 2-[3-(4-Ethyl-benzyl)-2-methyl-1H-indol-4-yloxy]-β-D-glucopyranoside] | – | – | 16 | 52
15 | OC[C@H]1O[C@@H](Oc2cccc3[nH]cc(Cc4ccc(-c5ccccc5)c(F)c4)c23)[C@H](O)[C@@H](O)[C@@H]1O [Example 20, 2-[3-(2-Fluoro-biphenyl-4-ylmethyl)-1H-indol-4-yloxy]-β-D-glucopyranoside] | 114 | – | 35 | –
16 | OC[C@H]1O[C@@H](Oc2cccc3[nH]cc(Cc4ccc(Cl)cc4)c23)[C@H](O)[C@@H](O)[C@@H]1O [Example 28, 2-[3-(4-Chloro-benzyl)-1H-indol-4-yloxy]-β-D-glucopyranoside] | 346 | – | 58 | –
